# Data: patent US20140186427A1, “ORODISPERSIBLE FILMS FOR THE MANUFACTURING OF INDIVIDUALISED MEDICINE OR FOR LARGE SCALE PRODUCTION” (TESA LABTEC GMBH, priority 2011, published 2014)
# Structures can show the parent of a compound that is named as a salt.
# Tests used:
# [1] = Solubility of the API in the ink (Klucel EX, brilliant blue, ethanol); format: physicochemical; details: brilliant blue and ethanol
# From the text: The ingredients of the ink were Klucel® EX (hydroxypropylcellulose, Ashland, USA), brilliant blue and ethanol.
# [2] = Recrystallisation after printing: polarised microscopy and X-ray diffraction; format: physicochemical; details: printed ODF
# From the text: X-ray diffractograms were collected for the drug-free film, the APIs and the ODFs after the fourth printing process using […], Netherland). Polarised micrographs and scanning electron micrographs were collected for the drug-free film and the ODFs after the fourth printing process using a DMLB microscope (Leica Microsystems, Cambridge, UK) and a LEO 1430 VP (Leo Elektron Microscopy, Cambridge, UK).
SMILES,Solubility in the ink [1],Recrystallisation / crystals after the printing process [2]
C#CCN[C@@H]1CCc2ccccc21 [Rasagiline mesylate],soluble in the ink,did not recrystallise
CN1CC(=O)N2[C@H](c3ccc4c(c3)OCO4)c3[nH]c4ccccc4c3C[C@@H]2C1=O [Tadalafil],forms an ink-suspension,–
